The numbers were not newly measured in US12253499B2, “Thin-layer chromatography system and method for assessing analyte concentrations in samples” (UCL BUSINESS LTD, priority 2017, dated 2025), which cites them from elsewhere.

Where two headings read alike, the source gives them in different places.

The conditions of series [1]: for Therapeutic window / Therapeutic window (μg/mL): Leading candidate drugs for TDM.
For series [2] the following is noted: inter-individual variability.
For series [3] the following is noted: relative to Irinotecan.
The target in series [4] is T1, topoisomerase I (Homo sapiens, UniProt P11387).
T1 sequence (P11387 1-765): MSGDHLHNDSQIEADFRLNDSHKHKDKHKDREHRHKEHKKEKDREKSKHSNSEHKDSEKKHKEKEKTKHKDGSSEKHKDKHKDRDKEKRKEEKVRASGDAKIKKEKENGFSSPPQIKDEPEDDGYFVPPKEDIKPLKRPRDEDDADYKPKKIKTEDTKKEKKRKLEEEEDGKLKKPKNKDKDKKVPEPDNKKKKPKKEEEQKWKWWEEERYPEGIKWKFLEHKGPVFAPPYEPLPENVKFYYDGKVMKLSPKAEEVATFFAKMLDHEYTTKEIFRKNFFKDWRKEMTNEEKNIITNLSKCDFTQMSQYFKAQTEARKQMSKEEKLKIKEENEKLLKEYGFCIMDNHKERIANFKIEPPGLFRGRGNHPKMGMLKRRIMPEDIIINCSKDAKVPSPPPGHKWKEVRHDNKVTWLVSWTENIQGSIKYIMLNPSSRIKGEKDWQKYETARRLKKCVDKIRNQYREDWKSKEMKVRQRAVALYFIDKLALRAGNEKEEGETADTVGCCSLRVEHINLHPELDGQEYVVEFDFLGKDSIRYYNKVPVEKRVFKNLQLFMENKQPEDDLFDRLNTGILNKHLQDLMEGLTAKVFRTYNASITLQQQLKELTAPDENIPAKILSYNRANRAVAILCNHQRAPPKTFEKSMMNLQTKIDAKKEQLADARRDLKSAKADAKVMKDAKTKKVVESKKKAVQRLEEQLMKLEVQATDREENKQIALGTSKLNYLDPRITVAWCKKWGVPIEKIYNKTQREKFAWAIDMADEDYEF
Particulars: relative to Irinotecan.

Where [5] appears, read: Table D, In-depth list of candidate drugs.
Where [6] appears, read: Table D, In-depth list of candidate drugs, given as daily dose.

As to `O=c1[nH]cc(F)c(=O)[nH]1` [5-fluoruoracil, 5-fluorouracil], in series [1] (setting [5]), the Window was 2000 to 3000 µg/mL. Further, in series [1] (Table D), the “Therapeutic window” value is 2000 to 3000 µg/mL. For the same molecule, the “Plasma drug concentrations vary” value in series [2] is recorded as at most 100 fold.
As to `COc1cccc2c1C(=O)c1c(O)c3c(c(O)c1C2=O)C[C@@](O)(C(=O)CO)C[C@@H]3O[C@H]1C[C@H](N)[C@H](O)[C@H](C)O1` [Doxorubicin], in series [1] (Table D), the “Therapeutic window” value is 10 to 58 µg/mL.
Regarding `CCCC(CCC)C(=O)O` [Valproic acid], the Window in series [1] (setting [5]) is 50 to 125 µg/mL.
As for `C#Cc1cccc(Nc2ncnc3cc(OCCOC)c(OCCOC)cc23)c1` [erlotinib], the Window in series [1] (setting [6]) was 100 to 150 mg/day.
Consider `O=C1CN=C(c2ccccc2)c2cc([N+](=O)[O-])ccc2N1` [Nitrazepam], for which the Window in series [1] (setting [5]) is 0.03 to 0.1 µg/mL.
Consider `CCCCc1oc2ccccc2c1C(=O)c1cc(I)c(OCCN(CC)CC)c(I)c1` [Amiodarone], for which, in series [1] (setting [5]), the Window was 0.5 to 2 µg/mL. In addition, the “Therapeutic window (μg/mL)” value in series [1] (Table D) is 0.5-2^ μg/mL.
Turning to `CCc1c2c(nc3ccc(O)cc13)-c1cc3c(c(=O)n1C2)COC(=O)[C@]3(O)CC` [SN-38, 7-ethyl-10-hydroxycampto-thecin], the “concentration of SN-38 lower than that of Irinotecan” value in series [3] is reported as “over 30 times”. Besides, the “more potent at inhibiting topoisomerase I than the parent Irinotecan” value in series [4] is given as “up to 1,000”.
Regarding `O=C1CN=C(c2ccccc2Cl)c2cc([N+](=O)[O-])ccc2N1` [Clonazepam], the Window in series [1] (setting [5]) was 20 to 80 µg/mL.
For `CS(=O)(=O)OCCCCOS(C)(=O)=O` [Busulfan], the Window in series [1] (setting [5]) was 0.9 to 1 µg/mL.
In the case of `CN[C@H](CC(C)C)C(=O)N[C@H]1C(=O)N[C@@H](CC(N)=O)C(=O)N[C@H]2C(=O)N[C@H]3C(=O)N[C@H](C(=O)N[C@H](C(=O)O)c4cc(O)cc(O)c4-c4cc3ccc4O)[C@H](O)c3ccc(c(Cl)c3)Oc3cc2cc(c3O[C@@H]2O[C@H](CO)[C@@H](O)[C@H](O)[C@H]2O[C@H]2C[C@](C)(N)[C@H](O)[C@H](C)O2)Oc2ccc(cc2Cl)[C@H]1O` [Vancomycin], in series [1] (setting [5]), the Window is 10 to 20 µg/mL.
Consider `NC[C@H]1O[C@H](O[C@H]2[C@H](O)[C@@H](O[C@H]3O[C@H](CO)[C@@H](O)[C@H](N)[C@H]3O)[C@H](N)C[C@@H]2N)[C@H](N)C[C@@H]1O` [Tobramicin], for which, in series [1] (setting [5]), the Window was 2 to 10 µg/mL.
As to `Cc1nc(Nc2ncc(C(=O)Nc3c(C)cccc3Cl)s2)cc(N2CCN(CCO)CC2)n1` [dasatinib], the Window in series [1] (setting [5]) was about 0.05 µg/mL.
With `CC1(C)O[C@@H]2[C@@H](CO[C@@]3(COS(N)(=O)=O)OC(C)(C)O[C@@H]23)O1` [Topiramate], in series [1] (setting [5]), the Window is 2 to 10 µg/mL.
For `CCC1(C)CC(=O)NC1=O` (stereo not drawn) [Ethosuximide], the Window in series [1] (setting [5]) was 40 to 100 µg/mL.
For “retuximab: cancer drug listed in Table D; not natively fluorescent, requires label”, the Window entry in series [1] (in vivo) is “Maintain at 375 mg/m^2”.
Regarding `O=C1NC(=O)C(c2ccccc2)(c2ccccc2)N1` [Phenytoin], the Window in series [1] (setting [5]) is 10 to 20 µg/mL.
Take `NC(=O)N1c2ccccc2C=Cc2ccccc21` [Carbamazepine]: the Window in series [1] (setting [5]) was 5 to 10 µg/mL.
As for `CCC1(c2ccccc2)C(=O)NCNC1=O` [Primidone], the Window in series [1] (setting [5]) was 5 to 12 µg/mL.
In the case of `C=CC[C@@H]1/C=C(\C)C[C@H](C)C[C@H](OC)[C@H]2O[C@@](O)(C(=O)C(=O)N3CCCC[C@H]3C(=O)O[C@H](/C(C)=C/[C@@H]3CC[C@@H](O)[C@H](OC)C3)[C@H](C)[C@@H](O)CC1=O)[C@H](C)C[C@@H]2OC` [Tacrolimus], the Window in series [1] (setting [5]) is 5 to 20 µg/mL.
With `C=CC(N)CCC(=O)O` (stereo not drawn) [Vigabratin], the Window in series [1] (setting [5]) is 0.8 to 36 µg/mL.
Take `[Li]` [Lithium]: in series [1] (setting [5]), the Window was 0.6-1.2 mEq/L.
Turning to `NC(=O)OCC(COC(N)=O)c1ccccc1` [Felbamate], in series [1] (setting [5]), the Window is 50 to 110 µg/mL.
Regarding `O=C(O)c1cn(C2CC2)c2cc(N3CCNCC3)c(F)cc2c1=O` [Ciprofloxacin], the Window in series [1] (setting [5]) is 0.1 to 8.3 µg/mL. Besides, the “Therapeutic window” value in series [1] (Table D) is 0.1 to 8.3 µg/mL.
As for `Cn1c(=O)c2[nH]cnc2n(C)c1=O` [Theophylline], the Window in series [1] (setting [5]) is 5 to 15 µg/mL.
`COc1cc([C@@H]2c3cc4c(cc3[C@@H](O[C@@H]3O[C@@H]5CO[C@@H](C)O[C@H]5[C@H](O)[C@H]3O)[C@H]3COC(=O)[C@H]23)OCO4)cc(OC)c1O` [Etopisode]: the “Therapeutic window” value in series [1] (Table D) is 1 to 10 µg/mL.
With “Infliximab: antibody for autoimmune diseases”, the Window in series [1] (in vivo) is about 3.8 µg/mL.
Regarding `CC(C)N(CCC(C(N)=O)(c1ccccc1)c1ccccn1)C(C)C` (stereo not drawn) [Disopyramide], the Window in series [1] (setting [5]) was 2 to 4 µg/mL.
Turning to `CO[C@H]1C[C@@H]2CC[C@@H](C)[C@@](O)(O2)C(=O)C(=O)N2CCCC[C@H]2C(=O)O[C@H]([C@H](C)C[C@@H]2CC[C@@H](O)[C@H](OC)C2)CC(=O)[C@H](C)/C=C(\C)[C@@H](O)[C@@H](OC)C(=O)[C@H](C)C[C@H](C)/C=C/C=C/C=C/1C` [Sirolimus], the Window in series [1] (setting [5]) is 0.005 to 0.01 µg/mL.
For the molecule `NCC1(CC(=O)O)CCCCC1` [Gabapentin], the Window in series [1] (setting [5]) is 2 to 20 µg/mL.
`C1CCC(C(CC2CCCCN2)C2CCCCC2)CC1` (stereo not drawn) [Perhexeline]: in series [1] (setting [5]), the Window is 0.3 to 4 µg/mL.
Regarding `CCN(CC)CCNC(=O)c1ccc(NC(C)=O)cc1` [NAPA], the Window in series [1] (setting [5]) is 4 to 8 µg/mL. Moreover, the “Therapeutic window” value in series [1] (Table D) was 4 to 8 µg/mL.
In the case of Adalimumab, in series [1] (in vivo), the Window is 3.5 to 7 µg/mL.
Take `CC[C@@H]([C@H](C)O)n1ncn(-c2ccc(N3CCN(c4ccc(OC[C@@H]5CO[C@@](Cn6cncn6)(c6ccc(F)cc6F)C5)cc4)CC3)cc2)c1=O` [Posaconazole]: in series [1] (setting [5]), the Window was about 0.7 µg/mL. Moreover, in series [1] (Table D), the “Therapeutic window (μg/mL)” value is “Maintain at 0.7 μg/mL”.
With `Cc1cccc(C)c1OCC(C)N` (stereo not drawn) [Mexiletine], the Window in series [1] (setting [5]) is 0.5 to 2.5 µg/mL. The “Therapeutic window” value in series [1] (Table D) was 0.5 to 2.5 µg/mL.
In the case of Teicoplanin, the Window in series [1] (setting [5]) was 10 to 60 µg/mL.
In the case of `CCC(C)n1ncn(-c2ccc(N3CCN(c4ccc(OCC5COC(Cn6cncn6)(c6ccc(Cl)cc6Cl)O5)cc4)CC3)cc2)c1=O` (stereo not drawn) [Itraconazole], in series [1] (setting [5]), the Window is 0.5 to 17 µg/mL. Also, the “Therapeutic window” value in series [1] (Table D) was 0.5 to 17 µg/mL.
Regarding `CN1C(=O)CC(=O)N(c2ccccc2)c2cc(Cl)ccc21` [Clobazam], in series [1] (setting [5]), the Window result is reported as “Varies, 0.2-5 ug/mL”.
For `CNC(=O)c1cc(Oc2ccc(NC(=O)Nc3ccc(Cl)c(C(F)(F)F)c3)cc2)ccn1` [sorafenib], the Window in series [1] (setting [6]) is on record as 800 mg/day.
Consider `O=C(O)c1ccccc1O` [Salicylate], for which the Window in series [1] (setting [5]) was 15 to 30 µg/mL. Besides, the “Therapeutic window” value in series [1] (Table D) was 15 to 30 µg/mL.
For the molecule `C=C[C@H]1C[N@@]2CC[C@H]1C[C@@H]2[C@@H](O)c1ccnc2ccc(OC)cc12` [Quinidine], the Window in series [1] (setting [5]) was 2 to 5 µg/mL. For the same molecule, in series [1] (Table D), the “Therapeutic window” value was 2 to 5 µg/mL.
`NS(=O)(=O)Cc1noc2ccccc12` [Zonisamide]: in series [1] (setting [5]), the Window was 10 to 40 µg/mL.
Regarding `NCC[C@H](O)C(=O)N[C@@H]1C[C@H](N)[C@@H](O[C@H]2O[C@H](CN)[C@@H](O)[C@H](O)[C@H]2O)[C@H](O)[C@H]1O[C@H]1O[C@H](CO)[C@@H](O)[C@H](N)[C@H]1O` [Amikacin], the Window in series [1] (setting [5]) was 5 to 15 µg/mL.
On to `Nc1nnc(-c2cccc(Cl)c2Cl)c(N)n1` [Lamotrigine], for which the Window in series [1] (setting [5]) is 2.5 to 15 µg/mL.
As to `COc1c(C)c2c(c(O)c1C/C=C(\C)CCC(=O)O)C(=O)OC2` [Mycophenolic Acid], in series [1] (setting [5]), the Window is 1 to 4 µg/mL. Moreover, the “Therapeutic window” value in series [1] (Table D) was 1 to 4 µg/mL.
On to `Cc1ccsc1C(=CCCN1CCC[C@@H](C(=O)O)C1)c1sccc1C` [Tiagibine], for which the Window in series [1] (setting [5]) was 0.02 to 0.2 µg/mL.
For `CC(=O)NC[C@H]1CN(c2ccc(N3CCOCC3)c(F)c2)C(=O)O1` [Linezolid], the Window in series [1] (setting [5]) was 1.75 to 7.53 µg/mL. For the same molecule, the “Therapeutic window” value in series [1] (Table D) was 1.8 to 7.5 µg/mL.
“Certolizumab pegol: antibody for autoimmune diseases”: in series [1] (in vivo), the Window is 3 to 84 µg/mL.
For `CCN(CC)CC(=O)Nc1c(C)cccc1C` [Lidocaine], in series [1] (setting [5]), the Window was 1.5 to 5 µg/mL.
As for `CC[C@@H](C(N)=O)N1CCCC1=O` [Levetiracetam], the Window is 10 to 40 µg/mL in series [1] (setting [5]) and 20 to 40 µg/mL in series [1] (Table D, In-depth list of candidate drugs, listed as Leveltiracetam).
